Measurements reported in patent US20260356901A1, “ONCOLYTIC PEPTIDES” (The Johns Hopkins University, priority 2023, published 2026).
Read-outs that look alike come from different tables or passages of the source. Square brackets hold non-standard residues; d marks the D form. Ends that are not written are not given here. Peptide text beside a SMILES is read from it. * marks the point of attachment. Dip = N[C@H](C(=O)O)C(c1ccccc1)c1ccccc1; Cbz = O=C(OCc1ccccc1)*; CH2F = FC*

What was measured:
[1] = other reported oncolytic peptides; cited from earlier work
4T1 cells = test: LDH release assay (CyQUANT) in 4T1 cells; assay type: cell-based, murine; details: pre-treated 50 μM inhibitor 30 minutes, then 100 μM CKS1 6 hours
Method: FIG. 3A is a graph of cell viability of 4T1 murine triple negative breast cancer cells (TNBC) after 100 μM or 20 μM CKS1 treatment measured by real-time cell analyzer (RTCA). Means±SEM, representative of N=3. FIG. 3B is a graph of lactate dehydrogenase (LDH) release in 4T1 cells pre-treated with 50 μM pan-caspase inhibitor Z-VAD for 30 minutes or 50 μM RIPK1 inhibitor Nec-1s for 30 minutes then treated with 100 μM CKS1 for 6 hours. LDH release in the supernatant was measured by the CyQUANT LDH cytotoxicity assay. Means±SEM, N=3, Dunnett's test (***p<0.005). […] The release of LDH in the supernatant was measured and was normalized to the amount of LDH released from cells treated with lysis buffer. […]
FIG. 5A is a graph of the release of LDH in the supernatant measured after treating 4T1 cells with 100 μM of the indicated peptides for 6 hours. […]
To determine whether CKS1 functions as an oncolytic peptide, the cell viability of 4T1 murine breast cancer cells was observed after CKS1 treatment using xCELLigence Real-Time Cell Analyzer (Agilent). In this method, the binding of cells to gold electrodes is detected as electrical impedance and graphed as arbitrary units of cell index in real time. […] The release of lactate dehydrogenase (LDH) was also quantified in the culture media after CKS1 treatment. […]

Solubility in water = assay type: physicochemical; details: data not shown
From the text: Peptides The peptides were synthesized by Genscript (Piscataway, NJ) using a solid-phase peptide synthesis technique. The purity was >90% as verified by HPLC and MS analyses. The peptides were solubilized in water.

U2OS cells = test: LDH release assay in U2OS cells; assay type: cell-based, human; details: 6 hours
Method: (§1) FIG. 3A is a graph of cell viability of 4T1 murine triple negative breast cancer cells (TNBC) after 100 μM or 20 μM CKS1 treatment measured by real-time cell analyzer (RTCA). Means±SEM, representative of N=3. FIG. 3B is a graph of lactate dehydrogenase (LDH) release in 4T1 cells pre-treated with 50 μM pan-caspase inhibitor Z-VAD for 30 minutes or 50 μM RIPK1 inhibitor Nec-1s for 30 minutes then treated with 100 μM CKS1 for 6 hours. LDH release in the supernatant was measured by the CyQUANT LDH cytotoxicity assay. Means±SEM, N=3, Dunnett's test (***p<0.005). FIGS. 3C-3G are graphs of LDH release in human osteosarcoma U2OS cells, murine fibrosarcoma MCA205 cells, murine colon carcinoma CT26 cells, murine normal NIH/3T3 fibroblasts, and HUVECs, respectively, treated with the indicated concentration of CKS1 for 6 hours. The release of LDH in the supernatant was measured and was normalized to the amount of LDH released from cells treated with lysis buffer. Means±SEM, N=3, Dunnett's test (**p<0.01, ***p<0.005). FIG. 3H is a graph of the incorporation of BrdU in HUVECs treated with CKS1. Means±SEM, N=3, Dunnett's test (**p<0.01, ***p<0.005).
(§2) LDH assay 1.5×10^4 cells were seeded in a 96 well plate and incubated overnight. The cells were washed once, and the medium was replaced with serum free media. Cells were treated for the indicated time and concentration. […]

MCA205 cells = test: LDH release assay in MCA205 cells; assay type: cell-based, murine; details: MCA205, 6 hours
Method: as §1, §2

CT26 cells = test: LDH release assay in CT26 cells; assay type: cell-based, murine; details: CT26, 6 hours
Method: as §1, §2

[2] = test system: NIH/3T3 normal fibroblasts; test: LDH release assay in NIH/3T3 cells; assay type: cell-based, murine; details: 6 hours
Method: as §1, §2

HUVECs = test: LDH release assay in HUVECs; assay type: cell-based, human; details: 6 hours
Method: as §1, §2

healthy cells = test: LDH assay against cancer cells not included in NCI-60 and healthy cells; assay type: cell-based
Method: LDH assay 1.5×10^4 cells were seeded in a 96 well plate and incubated overnight. The cells were washed once, and the medium was replaced with serum free media. Cells were treated for the indicated time and concentration. CyQUANT LDH cytotoxicity assay (Invitrogen, Carlsbad, CA) was used following the manufacturer's instructions.

**Q.** For `NCCCC[C@H](NC(=O)[C@@H](NC(=O)[C@H](Cc1c[nH]c2ccccc12)NC(=O)[C@H](CCCCN)NC(=O)[C@H](CCCCN)NC(=O)[C@H](Cc1c[nH]c2ccccc12)NC(=O)[C@H](Cc1c[nH]c2ccccc12)NC(=O)[C@H](CCCCN)NC(=O)[C@@H](N)CCCCN)C(c1ccccc1)c1ccccc1)C(N)=O` [LTX-315] (H-KKWWKKW[Dip]K-NH2), which solubility in water [1] is on record?
**A.** not soluble in water

**Q.** For `CN1C(=O)NC(Cc2c[nH]c3c(Cl)cccc23)C1=O` (centres unmarked) [Nec-1s, necrostatin-1 stable], which “inhibition of CKS1-induced LDH release by pretreatment” value (4T1 cells) is on record?
**A.** did not inhibit the release of LDH

**Q.** For `CC(NC(=O)C(NC(=O)OCc1ccccc1)C(C)C)C(=O)NC(CC(=O)O)C(=O)CF` (stereo not drawn) [Z-VAD] (Cbz-Val-Ala-Asp-CH2F; configuration not given here), which “inhibition of CKS1-induced LDH release by pretreatment” value (4T1 cells) is on record?
**A.** did not inhibit the release of LDH

**Q.** Which solubility in water (Solubility in water) does the source give for “IVKKIIEKMLNS [SEQ ID NO: 42, IVKKIIEKMLNS]” here?
**A.** not soluble in water

**Q.** Which “cytotoxicity (LDH release)” value (U2OS cells) does the source give for NGRKACLNPASPIVKKIIEKMLNS [CKS1] here?
**A.** effective

**Q.** What about the “cytotoxicity (LDH release)” value (MCA205 cells) of the same compound?
**A.** effective

**Q.** What about the “cytotoxicity (LDH release)” value (CT26 cells) of the same compound?
**A.** effective

**Q.** What about the “cell death (LDH release) in normal cells” value [2] of the same compound?
**A.** did not induce cell death

**Q.** What about the “cell death (LDH release) in normal cells” value (HUVECs) of the same compound?
**A.** did not induce cell death

**Q.** What about the solubility in water (Solubility in water) of the same compound?
**A.** high solubility in water

**Q.** Which “toxicity against healthy cells compared to cancer cells” value (healthy cells) does the source give for NGRKAKLNPASIVKKIIKKILKS [NF27] here?
**A.** significantly lower toxicity
